Laboratory results reported in US10030020B2, “Spirocycle compounds and methods of making and using same” (Abide Therapeutics, Inc., priority 2016, dated 2018).
Where two headings read alike, the source gives them in different places.

Assays:
Type in all cases: biochemical
FAAH = FAAH (Mus musculus (Mouse), UniProt O08914); experiment: In vitro competitive activity-based protein profiling (mouse brain membrane fraction or cell lysates), FAAH band; conditions: for inhibition at 1 µM: read-out: FAAH % Inh 1 μM (mouse); for IC50: competitive ABPP
FAAH, sequence (O08914 whole entry): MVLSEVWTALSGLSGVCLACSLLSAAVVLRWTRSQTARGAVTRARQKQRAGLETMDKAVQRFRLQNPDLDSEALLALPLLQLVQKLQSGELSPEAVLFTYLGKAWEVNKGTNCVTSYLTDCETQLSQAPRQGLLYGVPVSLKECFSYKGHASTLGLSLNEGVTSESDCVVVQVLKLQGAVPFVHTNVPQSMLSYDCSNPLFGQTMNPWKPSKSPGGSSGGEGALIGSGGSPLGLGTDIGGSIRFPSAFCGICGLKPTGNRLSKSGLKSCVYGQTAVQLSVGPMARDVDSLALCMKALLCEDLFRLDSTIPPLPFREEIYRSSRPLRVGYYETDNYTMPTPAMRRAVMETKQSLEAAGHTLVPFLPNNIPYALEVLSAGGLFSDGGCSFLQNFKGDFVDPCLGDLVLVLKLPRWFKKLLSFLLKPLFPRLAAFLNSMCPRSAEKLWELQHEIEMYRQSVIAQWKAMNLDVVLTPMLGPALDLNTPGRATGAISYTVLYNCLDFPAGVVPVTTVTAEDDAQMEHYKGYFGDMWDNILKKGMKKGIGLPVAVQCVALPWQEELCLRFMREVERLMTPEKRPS
Method in brief: (§1)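 Residual hydrolase activity was measured as gel band fluorescence after FP-Rh labelling (30 min, 37° C) of proteomes pretreated 30 min at 37° C with inhibitor.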

MAGL = MAGL (Mus musculus (Mouse), UniProt O35678); experiment: In vitro competitive activity-based protein profiling (mouse brain membrane fraction or cell lysates), MAGL band; conditions: for inhibition at 1 µM: read-out: MAGL % Inh 1 μM (mouse); for IC50: competitive ABPP
MAGL, sequence (O35678 whole entry): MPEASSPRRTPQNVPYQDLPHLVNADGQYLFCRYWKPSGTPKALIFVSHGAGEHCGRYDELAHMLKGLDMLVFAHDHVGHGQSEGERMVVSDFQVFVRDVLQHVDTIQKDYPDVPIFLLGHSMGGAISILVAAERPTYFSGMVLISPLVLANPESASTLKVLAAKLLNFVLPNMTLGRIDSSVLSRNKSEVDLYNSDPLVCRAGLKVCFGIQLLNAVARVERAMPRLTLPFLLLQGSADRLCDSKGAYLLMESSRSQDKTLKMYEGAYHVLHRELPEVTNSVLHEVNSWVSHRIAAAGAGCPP
Experimental: In Vitro Competitive Activity-Based Protein Profiling.
Proteomes (mouse brain membrane fraction or cell lysates) (50 μL, 1.0 mg/mL total protein concentration) were preincubated with varying concentrations of inhibitors at 37° C. After 30 min, FP—Rh (1.0 μL, 50 μM in DMSO) was added and the mixture was incubated for another 30 min at 37° C. Reactions were quenched with SDS loading buffer (50 μL-4×) and run on SDS-PAGE.

ABHD6 = ABHD6 (Mus musculus (Mouse), UniProt Q8R2Y0); experiment: In vitro competitive activity-based protein profiling (mouse brain membrane fraction or cell lysates), ABHD6 band; conditions: for inhibition at 1 µM: read-out: ABHD6 % Inh 1 μM (mouse); for IC50: competitive ABPP
ABHD6, sequence (Q8R2Y0 whole entry): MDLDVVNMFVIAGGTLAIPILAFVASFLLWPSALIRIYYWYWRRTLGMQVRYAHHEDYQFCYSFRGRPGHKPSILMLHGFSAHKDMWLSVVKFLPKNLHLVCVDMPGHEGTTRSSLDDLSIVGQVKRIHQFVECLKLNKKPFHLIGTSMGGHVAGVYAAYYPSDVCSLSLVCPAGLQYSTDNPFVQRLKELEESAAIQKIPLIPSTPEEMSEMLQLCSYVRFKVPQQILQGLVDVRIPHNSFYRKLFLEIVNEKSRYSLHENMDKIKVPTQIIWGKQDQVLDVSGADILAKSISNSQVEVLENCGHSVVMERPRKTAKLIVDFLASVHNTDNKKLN
Method in brief: as §1

Row | inhibition at 1 µM (FAAH; mouse proteome) [%] | IC50 (FAAH; mouse proteome) [nM] | inhibition at 1 µM (MAGL; mouse proteome) [%] | inhibition at 1 µM (ABHD6; mouse proteome) [%] | IC50 (ABHD6; mouse proteome) [nM] | IC50 (MAGL; mouse proteome) [nM] | inhibition at 1 µM (FAAH; mouse) [%] | inhibition at 1 µM (MAGL; mouse) [%] | inhibition at 1 µM (ABHD6; mouse) [%] | SMILES
1 | < 25 | > 1000 | > 75 | 25 to 75 | 100 to 1000 | < 100 | – | – | – | CC1(C)CC2(CCN(C(=O)OC(C(F)(F)F)C(F)(F)F)CC2)CN1Cc1cc(CN2CCOCC2)ccc1OC(F)(F)F [Example 192, 1,1,1,3,3,3-Hexafluoropropan-2-yl 3,3-dimethyl-2-(5-(morpholinomethyl)-2-(trifluoromethoxy)benzyl)-2,8-diazaspiro[4.5]decane-8-carboxylate]
2 | < 25 | > 1000 | > 75 | 25 to 75 | > 1000 | < 100 | – | – | – | CN1CCC(Oc2cc(C(F)(F)F)ccc2CN2CCCC23CCN(C(=O)OC(C(F)(F)F)C(F)(F)F)CC3)CC1 [Example 165, 1,1,1,3,3,3-Hexafluoropropan-2-yl 1-(2-(1-methylpiperidin-4-yloxy)-4-(trifluoromethyl)benzyl)-1,8-diazaspiro[4.5]decane-8-carboxylate]
3 | < 25 | > 1000 | > 75 | < 25 | > 1000 | 100 to 1000 | – | – | – | O=C(OC(C(F)(F)F)C(F)(F)F)N1CCC2(CCCN2Cc2ccc(C(F)(F)F)cc2Oc2nc3ccccc3s2)CC1 [Example 171, 1,1,1,3,3,3-Hexafluoropropan-2-yl 1-(2-(benzo[d]thiazol-2-yloxy)-4-(trifluoromethyl)benzyl)-1,8-diazaspiro[4.5]decane-8-carboxylate]
4 | < 25 | – | 25 to 75 | < 25 | – | – | – | – | – | O=C(O)C1COCCN1c1cc(C(F)(F)F)ccc1CN1CCC2(CCN(C(=O)OC(C(F)(F)F)C(F)(F)F)CC2)C1 (stereo not drawn) [Example 220]
5 | – | – | – | – | – | – | < 25 | < 25 | < 25 | O=C(O)C1CCCCN1c1cc(C(F)(F)F)ccc1CN1CCCC12CCN(C(=O)OC(C(F)(F)F)C(F)(F)F)CC2 (stereo not drawn) [Example 259]

More lines, now with the values behind:

Row | SMILES | inhibition at 1 µM (FAAH; mouse proteome) [%] | IC50 (FAAH; mouse proteome) [nM] | inhibition at 1 µM (MAGL; mouse proteome) [%] | inhibition at 1 µM (ABHD6; mouse proteome) [%] | IC50 (ABHD6; mouse proteome) [nM] | IC50 (MAGL; mouse proteome) [nM] | inhibition at 1 µM (FAAH; mouse) [%] | inhibition at 1 µM (MAGL; mouse) [%] | inhibition at 1 µM (ABHD6; mouse) [%]
6 | O=C(OC(C(F)(F)F)C(F)(F)F)N1CCC2(CCCN2Cc2ccc(N3CCOCC3)c(Cl)c2)CC1 [Example 127, 1,1,1,3,3,3-Hexafluoropropan-2-yl 1-(3-chloro-4-morpholinobenzyl)-1,8-diazaspiro[4.5]decane-8-carboxylate] | < 25 | > 1000 | > 75 | 25 to 75 | > 1000 | – | – | – | –
7 | O=C(OC(C(F)(F)F)C(F)(F)F)N1CCC2(CCCN2Cc2cccc(N3CCC(F)CC3)c2Cl)CC1 [Example 110, 1,1,1,3,3,3-Hexafluoropropan-2-yl 1-(2-chloro-3-(4-fluoropiperidin-1-yl)benzyl)-1,8-diazaspiro[4.5]decane-8-carboxylate] | < 25 | > 1000 | > 75 | < 25 | > 1000 | < 100 | – | – | –
8 | O=C(OC(C(F)(F)F)C(F)(F)F)N1CCC2(CCCN2Cc2cccc(N3CCC(F)(F)CC3)c2Cl)CC1 [Example 111, 1,1,1,3,3,3-Hexafluoropropan-2-yl 1-(2-chloro-3-(4,4-difluoropiperidin-1-yl)benzyl)-1,8-diazaspiro[4.5]decane-8-carboxylate] | < 25 | > 1000 | > 75 | < 25 | > 1000 | < 100 | – | – | –
9 | CC(=O)N1CCCc2cccc(CN3CCCC34CCN(C(=O)OC(C(F)(F)F)C(F)(F)F)CC4)c21 [Example 142, 1,1,1,3,3,3-Hexafluoropropan-2-yl 1-((1-acetyl-1,2,3,4-tetrahydroquinolin-8-yl)methyl)-1,8-diazaspiro[4.5]decane-8-carboxylate] | < 25 | > 1000 | > 75 | < 25 | > 1000 | 100 to 1000 | – | – | –
10 | O=C(OC(C(F)(F)F)C(F)(F)F)N1CCC2(CCCN2Cc2cccc(OCCN3CCOCC3)c2)CC1 [Example 13, 1,1,1,3,3,3-Hexafluoropropan-2-yl 1-(3-(2-morpholinoethoxy)benzyl)-1,8-diazaspiro[4.5]decane-8-carboxylate] | < 25 | > 1000 | > 75 | < 25 | > 1000 | 100 to 1000 | – | – | –
11 | CS(=O)(=O)N1CCN(c2cc(Cl)cc(CN3CCCC34CCN(C(=O)OC(C(F)(F)F)C(F)(F)F)CC4)c2)CC1 [Example 40, 1,1,1,3,3,3-Hexafluoropropan-2-yl 1-(3-chloro-5-(4-(methylsulfonyl)piperazin-1-yl)benzyl)-1,8-diazaspiro[4.5]decane-8-carboxylate] | < 25 | > 1000 | > 75 | < 25 | > 1000 | < 100 | – | – | –
12 | O=C(OC(C(F)(F)F)C(F)(F)F)N1CCC2(CCCN2Cc2cc(Cl)cc(N3CC4COCC4C3)c2)CC1 (stereo not drawn) [Example 38, 1,1,1,3,3,3-Hexafluoropropan-2-yl 1-(3-chloro-5-(tetrahydro-1H-furo[3,4-c]pyrrol-5(3H)-yl)benzyl)-1,8-diazaspiro[4.5]decane-8-carboxylate] | 25 to 75 | > 1000 | > 75 | < 25 | > 1000 | < 100 | – | – | –
13 | CS(=O)(=O)N1CCN(c2cccc(CN3CCCC34CCN(C(=O)OC(C(F)(F)F)C(F)(F)F)CC4)c2Cl)CC1 [Example 113, 1,1,1,3,3,3-Hexafluoropropan-2-yl 1-(2-chloro-3-(4-(methylsulfonyl)piperazin-1-yl)benzyl)-1,8-diazaspiro[4.5]decane-8-carboxylate] | < 25 | > 1000 | > 75 | < 25 | > 1000 | < 100 | – | – | –
14 | CC1(C)CC2(CCN(C(=O)OC(C(F)(F)F)C(F)(F)F)CC2)CN1Cc1c(N2CC3COCC3C2)cccc1C(F)(F)F (stereo not drawn) [Example 57, 1,1,1,3,3,3-Hexafluoropropan-2-yl 3,3-dimethyl-2-(2-(tetrahydro-1H-furo[3,4-c]pyrrol-5(3H)-yl)-6-(trifluoromethyl)benzyl)-2,8-diazaspiro[4.5]decane-8-carboxylate] | < 25 | > 1000 | > 75 | < 25 | > 1000 | – | – | – | –
15 | O=C(OC(C(F)(F)F)C(F)(F)F)N1CCC2(CCN(Cc3ccc(Cl)c(N4CCOCC4)c3)C2)CC1 [Example 154, 1,1,1,3,3,3-Hexafluoropropan-2-yl 2-(4-chloro-3-morpholinobenzyl)-2,8-diazaspiro[4.5]decane-8-carboxylate] | < 25 | > 1000 | > 75 | ≥ 75 | 100 to 1000 | < 100 | – | – | –
16 | COc1ccc(CN2CCCC23CCN(C(=O)OC(C(F)(F)F)C(F)(F)F)CC3)cc1 [Example 1, 1,1,1,3,3,3-Hexafluoropropan-2-yl 1-(4-methoxybenzyl)-1,8-diazaspiro[4.5]decane-8-carboxylate] | < 25 | > 1000 | > 75 | < 25 | > 1000 | – | – | – | –
